From ChEMBL document CHEMBL1151191, “Rugulotrosins A and B: Two new antibacterial metabolites from an Australian isolate of a Penicillium sp” (J Nat Prod, 2004)

Legend:
Bacillus subtilis = experiment: Antibacterial activity against Bacillus subtilis ATCC 6633 after 24 hrs by agar-based microtiter plate assay; assay type: functional
Enterococcus faecalis = experiment: Antibacterial activity against Enterococcus faecalis ATCC 29212 after 24 hrs by agar-based microtiter plate assay; assay type: functional
Staphylococcus aureus = experiment: Antibacterial activity against Staphylococcus aureus ATCC 25923 after 24 hrs by agar-based microtiter plate assay; assay type: organism-based
Bacillus cereus = experiment: Antibacterial activity against Bacillus cereus ATCC 11778 after 24 hrs by agar-based microtiter plate assay; assay type: organism-based

In the case of COC(=O)[C@]12Oc3c(Br)c(C)c(-c4c(C)c(Br)c(O)c5c4O[C@@]4(C(=O)OC)C(=C(O)CC[C@@H]4O)C5=O)c(O)c3C(=O)C1=C(O)CC[C@@H]2O, the LD99 (Bacillus subtilis) is reported as 6.3 µg/mL.
For COC(=O)[C@]12Oc3cc(C)c(-c4c(C)cc5c(c4O)C(=O)C4=C(O)CC[C@H](O)[C@@]4(C(=O)OC)O5)c(O)c3C(=O)C1=C(O)CC[C@@H]2O [RUGULOTROSIN A], the LD99 (Enterococcus faecalis) was 1.6 µg/mL, the LD99 (Staphylococcus aureus) was 200 µg/mL and the LD99 (Bacillus cereus) was 3.1 µg/mL.
For COC(=O)[C@]12Oc3cc(C)c(-c4c(C)cc(O)c5c4O[C@@]4(C(=O)OC)C(=C(O)CC[C@@H]4O)C5=O)c(O)c3C(=O)C1=C(O)CC[C@@H]2O [RUGULOTROSIN B], the LD99 (Bacillus subtilis) was 25 µg/mL.
